Key:
[1] = test system: LNCaP; assay: cells; conditions: Homo sapiens, 144 h
Description: Growth inhibition of human LNCAP cells after 6 days

[2] = molecular target: Lysine-specific histone demethylase 1A (Homo sapiens, UniProt O60341)
Description: Inhibition of human recombinant His-tagged full length LSD1 expressed in Escherichia coli BL21 (DE3) assessed as inactivation constant preincubated for 20 mins with substrate measured after 30 mins by AmplexRed based fluorescence quenching assay

Ki [2] [µM]	Structure (SMILES)	IC50 [1] [µM]
–	COc1ccc([C@@H]2C[C@H]2N)cc1	1710
–	N[C@@H]1C[C@H]1c1ccc(Br)cc1	111
–	N[C@@H]1C[C@H]1c1cccc(Br)c1	129
–	N[C@@H]1C[C@H]1c1ccccc1Br	5870
–	N[C@@H]1C[C@H]1c1ccc(-c2ccccc2)cc1	110
> 100	N[C@@H]1C[C@H]1c1cccc(-c2ccccc2)c1	226
> 100	N[C@@H]1C[C@H]1c1ccccc1-c1ccccc1	181
